Results taken from PubChem BioAssay AID248 (DTP/NCI, 2004).
“And” between values parts separate entries of the source, which are not always exact repeats. Identical values can stand only once. Inconclusive results and toxic doses are left out. Cut-off read from the data, not from the text of the source: active = T/C of 150% or more; inactive = T/C below 125%.

Test system: L1210 leukemia ip in BDF1 mice, survival T/C
Test: NCI In Vivo Anticancer Drug Screen. Data for tumor model L1210 Leukemia (intraperitoneal) in B6D2F1 (BDF1) mice
Details: endpoint: mean survival time, higher = longer survival
Procedure, shortened: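 Tumor was transplanted into mice, which were then dosed with test compound or vehicle alone. Survival was recorded for each group, and the treated figure was expressed relative to the control figure.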

[1] = dose: 100.0 mg/kg/injection, schedule: Q01DX001 (ip), vehicle: saline
[2] = dose: 200.0 mg/kg/injection, schedule: Q01DX001 (ip), vehicle: saline
[3] = dose: 400.0 mg/kg/injection, schedule: Q01DX001 (ip), vehicle: saline
[4] = dose: 100.0 mg/kg/injection, schedule: Q04DX002 (ip), vehicle: Klucel (hydroxypropylcellulose) (HPC)
[5] = dose: 200.0 mg/kg/injection, schedule: Q04DX002 (ip), vehicle: Klucel (hydroxypropylcellulose) (HPC)
[6] = dose: 400.0 mg/kg/injection, schedule: Q04DX002 (ip), vehicle: Klucel (hydroxypropylcellulose) (HPC)
[7] = dose: 100.0 mg/kg/injection, schedule: Q01DX009 (ip), vehicle: saline with Tween-80
[8] = dose: 100.0 mg/kg/injection, schedule: Q04DX003 (ip), vehicle: saline with Tween-80
[9] = dose: 200.0 mg/kg/injection, schedule: Q01DX009 (ip), vehicle: saline with Tween-80
[10] = dose: 200.0 mg/kg/injection, schedule: Q04DX003 (ip), vehicle: saline with Tween-80
[11] = dose: 400.0 mg/kg/injection, schedule: Q01DX009 (ip), vehicle: saline with Tween-80
[12] = dose: 400.0 mg/kg/injection, schedule: Q04DX002 (ip), vehicle: saline with Tween-80
[13] = dose: 400.0 mg/kg/injection, schedule: Q04DX003 (ip), vehicle: saline with Tween-80
[14] = dose: 100.0 mg/kg/injection, schedule: Q01DX001 (ip), vehicle: Klucel (hydroxypropylcellulose) (HPC)
[15] = dose: 200.0 mg/kg/injection, schedule: Q01DX001 (ip), vehicle: Klucel (hydroxypropylcellulose) (HPC)
[16] = dose: 400.0 mg/kg/injection, schedule: Q01DX001 (ip), vehicle: Klucel (hydroxypropylcellulose) (HPC)
[17] = dose: 100.0 mg/kg/injection, schedule: Q04DX003 (ip), vehicle: Klucel (hydroxypropylcellulose) (HPC)
[18] = dose: 200.0 mg/kg/injection, schedule: Q04DX003 (ip), vehicle: Klucel (hydroxypropylcellulose) (HPC)
[19] = dose: 400.0 mg/kg/injection, schedule: Q04DX003 (ip), vehicle: Klucel (hydroxypropylcellulose) (HPC)
[20] = dose: 50.0 mg/kg/injection, schedule: Q01DX009 (ip), vehicle: saline
[21] = dose: 100.0 mg/kg/injection, schedule: Q01DX009 (ip), vehicle: saline
[22] = dose: 200.0 mg/kg/injection, schedule: Q01DX009 (ip), vehicle: saline
[23] = dose: 50.0 mg/kg/injection, schedule: Q01DX009 (ip), vehicle: saline with Tween-80
[24] = dose: 100.0 mg/kg/injection, schedule: Q01DX009 (ip), vehicle: Klucel (hydroxypropylcellulose) (HPC)
[25] = dose: 200.0 mg/kg/injection, schedule: Q01DX009 (ip), vehicle: Klucel (hydroxypropylcellulose) (HPC)
[26] = dose: 400.0 mg/kg/injection, schedule: Q01DX009 (ip), vehicle: Klucel (hydroxypropylcellulose) (HPC)
[27] = dose: 200.0 mg/kg/injection, schedule: Q04DX002 (ip), vehicle: saline with Tween-80
[28] = dose: 100.0 mg/kg/injection, schedule: Q01DX001 (ip), vehicle: saline with Tween-80
[29] = dose: 200.0 mg/kg/injection, schedule: Q01DX001 (ip), vehicle: saline with Tween-80

Measured: T/C

C/C=C/CC1(CC)C(=O)NC(=O)NC1=O
inactive: dose: 75.0 mg/kg/injection, schedule: Q01DX001 (ip), vehicle: other 98 % of control | dose: 75.0 mg/kg/injection, schedule: Q01DX001 (ip), vehicle: saline 93 % of control | dose: 150.0 mg/kg/injection, schedule: Q01DX001 (ip), vehicle: other 110 % of control | dose: 150.0 mg/kg/injection, schedule: Q01DX001 (ip), vehicle: saline 102 % of control | dose: 300.0 mg/kg/injection, schedule: Q01DX001 (ip), vehicle: other 96 % of control

CC(C)C1=NNC(=O)C1(C)C
inactive: [1] 105 % of control | [2] 108 % of control | [3] 108 % of control

O=C(c1ccc(F)cc1)c1ccc2ccccc2c1C(=O)O
inactive: [4] 89 % of control | [5] 92 % of control | [6] 99 % of control

CC(=O)Nc1c(C)cc(Cl)cc1Cl
inactive: dose: 25.6 mg/kg/injection, schedule: Q04DX002 (ip), vehicle: saline with Tween-80 95 % of control | dose: 64.0 mg/kg/injection, schedule: Q04DX002 (ip), vehicle: saline with Tween-80 95 % of control | [7] 91 % of control | [8] 91 % of control | dose: 160.0 mg/kg/injection, schedule: Q04DX002 (ip), vehicle: saline with Tween-80 95 % of control | [9] 89 % of control | [10] 95 % of control | [11] 96 % of control | [12] 98 % of control | [13] 98 % of control

O=[N+]([O-])c1ccc(C(=NO)c2ccc([N+](=O)[O-])cc2)cc1
inactive: [14] 103 % of control | [15] 109 % of control | [16] 101 % of control

CC(=O)Oc1ccc2c(c1)C(=O)CCCCCC(=O)O2
inactive: dose: 50.0 mg/kg/injection, schedule: Q04DX003 (ip), vehicle: saline with Tween-80 95 % of control | [10] 117 % of control

CCOC(=O)N1C2CCC(C2)N1C(=O)OCC
inactive: [1] 103 % of control | [2] 100 % of control | [3] 103 % of control

Oc1ccccc1C=NCCCN1CC1.[Ni+2].[O-]c1ccccc1C=NCCCN1CC1
inactive: [14] 114 % of control | [15] 87 % of control | [16] 104 % of control

CCCCCCCCCCCC[N+](C)(C)CCn1cnc2c(N)ncnc21
inactive: dose: 6.25 mg/kg/injection, schedule: Q04DX003 (ip), vehicle: saline 106 % of control | dose: 12.5 mg/kg/injection, schedule: Q04DX003 (ip), vehicle: saline 109 % of control | dose: 25.0 mg/kg/injection, schedule: Q04DX003 (ip), vehicle: saline 103 % of control

O=C1C(Cl)=C(Nc2ccccc2)C(=O)c2ccccc21
inactive: [17] 101 % of control | [18] 101 % of control | [19] 102 % of control

CSc1cc(N)cc(C(=O)O)c1O
inactive: [7] 92 % of control | [9] 89 % of control | [11] 88 % of control

CCN(CC)CCCC(C)NCCCN (stereo unspecified)
inactive: [20] 94 % of control | [21] 100 % of control and 106 % of control | dose: 100.0 mg/kg/injection, schedule: Q04DX003 (ip), vehicle: saline 90 % of control | [22] 104 % of control and 92 % of control | dose: 200.0 mg/kg/injection, schedule: Q04DX003 (ip), vehicle: saline 90 % of control

O=C(O)c1c(I)c(I)c(I)c(I)c1C(=O)c1ccccc1
inactive: [23] 103 % of control | [7] 115 % of control | [9] 112 % of control

C[N+]1(C)C2CC(O)CC1C1OC12 (stereo unspecified)
inactive: dose: 1.2 mg/kg/injection, schedule: Q01DX001 (ip), vehicle: saline 95 % of control | dose: 2.5 mg/kg/injection, schedule: Q01DX001 (ip), vehicle: saline 97 % of control | dose: 5.0 mg/kg/injection, schedule: Q01DX001 (ip), vehicle: saline 100 % of control

O=C(O)COc1ccc2ccccc2c1Cl
inactive: [4] 86 % of control | [5] 89 % of control | [6] 92 % of control

CCCCCCCCCCNC(C)=O
inactive: [24] 104 % of control | [17] 109 % of control | [25] 106 % of control | [18] 96 % of control | [26] 89 % of control | [19] 102 % of control

CC(C)(C(O)c1ccccc1)[N+](=O)[O-] (stereo unspecified)
inactive: [8] 101 % of control | [10] 97 % of control | [13] 101 % of control

CCOC(=O)C1C2OC(=O)C(C(=O)C2N=Nc2ccc(-c3ccc(N=NC4C(=O)C5C(=O)OC4C(C(=O)OCC)C5C4CC=CCC4)cc3)cc2)C1C1CC=CCC1 (stereo unspecified)
inactive: dose: 100.0 mg/kg/injection, schedule: Q01DX001 (ip), vehicle: other 86 % of control | [7] 108 % of control | [8] 100 % of control | dose: 200.0 mg/kg/injection, schedule: Q01DX001 (ip), vehicle: other 86 % of control | [9] 104 % of control | [10] 100 % of control | [11] 102 % of control | [13] 100 % of control

CCOc1ccc(OCC)c(NC(=O)Nc2ccccc2Cl)c1
inactive: [27] 90 % of control | [12] 87 % of control

COC(=O)c1ccccc1NC(=S)NC(=O)C(C)Oc1ccccc1 (stereo unspecified)
inactive: [28] 111 % of control | [7] 108 % of control and 109 % of control | dose: 100.0 mg/kg/injection, schedule: Q04DX002 (ip), vehicle: saline with Tween-80 96 % of control and 108 % of control | [8] 107 % of control | [29] 95 % of control | [9] 95 % of control and 100 % of control | [27] 98 % of control and 107 % of control | [10] 98 % of control | dose: 400.0 mg/kg/injection, schedule: Q01DX001 (ip), vehicle: saline with Tween-80 98 % of control | [11] 92 % of control | [12] 101 % of control and 104 % of control | [13] 106 % of control

CCCCN(C)N=Nc1ccccc1C(=O)OC
inactive: dose: 100.0 mg/kg/injection, schedule: Q01DX001 (ip), vehicle: carboxymethylcellulose (CMC) 107 % of control | dose: 200.0 mg/kg/injection, schedule: Q01DX001 (ip), vehicle: carboxymethylcellulose (CMC) 117 % of control

COC(=O)CCC(NC(=O)c1cccc(N(C)C=O)c1)C(=O)OC (stereo unspecified)
inactive: [23] 97 % of control | [7] 95 % of control | [9] 105 % of control

NC(N)=NC(N)=Nc1ccccc1-c1ccccc1
inactive: [24] 111 % of control | [25] 103 % of control | [26] 86 % of control

CCCCNC(=O)Nc1ccc(CC)cc1
inactive: [24] 98 % of control | [17] 97 % of control | [25] 102 % of control | [18] 102 % of control | [26] 96 % of control | [19] 100 % of control

CC(=O)c1ccccc1OB(F)F
inactive: dose: 50.0 mg/kg/injection, schedule: Q01DX001 (ip), vehicle: saline 98 % of control | [1] 98 % of control | [2] 106 % of control

COc1ccc(C(=O)CC(C)=O)c(OCc2ccccc2)c1OC
inactive: [1] 101 % of control | [2] 98 % of control | [3] 104 % of control

O=C1CCC(=S)N1c1ccccc1
inactive: [17] 101 % of control | [18] 100 % of control | [19] 95 % of control

Cc1nc(N)nc(N)c1Cc1ccc(N=[N+]=[N-])cc1
inactive: dose: 25.0 mg/kg/injection, schedule: Q04DX002 (ip), vehicle: saline with Tween-80 98 % of control | dose: 50.0 mg/kg/injection, schedule: Q04DX002 (ip), vehicle: saline with Tween-80 113 % of control

Oc1cccc(C(c2ccccc2)c2ccccc2)c1
inactive: [28] 94 % of control | [29] 94 % of control

COC(C)(C)C(C)O (stereo unspecified)
inactive: [20] 100 % of control | [21] 96 % of control | [22] 100 % of control
